Source: patent publication US6835733B2, “Tropane linked benzofuran derivatives” (Eli Lilly and Company, priority 1999, dated 2004)
Where a name gives a salt, the structure may show the parent alone.

SMILES: COc1cccc2sc(C3=CC4CCC(C3)N4C[C@H](O)COc3cccc4occc34)cc12 (stereo partly shown) (as salt: oxalate)
- melting point: 201 to 204 °C (dec.)
